Results as given in patent publication US5789188A, “Tetracycline-efflux pump inhibitor screening methods” (priority 1996, dated 1998).
Like-named read-outs stand apart in the source and are kept apart here.

Experiments:
[1] = tested on: strain KB3ind; format: cell-based, E. coli; as to Induction Assay response: key: ±: Possible positive; +: Weak positive; ++: Stronger positive; -: Negative
Protocol: (§1) To detect tetracyclines, a plate assay is developed that is similar to one described previously (11). Cells are grown in Luria Broth (adjusted with NaOH to pH 7.5) with 25 μg/ml of kanamycin to a cell density of 0.5 absorbance units (600 nm). A 25 ml sample of the culture is harvested by centrifugation and resuspended in 1 ml of broth. The cells are mixed with 25 ml of soft agar (1%, wt/vol) and poured onto 100 ml of LB (pH 7.5)+ kanamycin, within a 22 cm^2 NUNC plate (Corning). Samples are applied by spotting from 2 to 15 μl, or by applying a disc impregnated with a compound, and the plate is incubated for 3-4 hours at 37° C. The plates are overlaid with a solution containing 13.5 mg of 6-bromo-2-naphthyl-β-D-galactopyranoside side and 86.5 mg of fast blue RR (Sigma) dissolved in 2 ml of dimethylsulfoxide, to which 25 ml of soft agar is added. β-Galactosidase is detected by the presence of a purple spot.

[2] = tested on: tetracycline efflux pump (strain KB4 or KB5); test: Inhibition Assay, plate assay (agar with 5 ng/ml of tetracycline); also: key: ±: Possible positive; +: Weak positive; ++: Stronger positive; -: Negative; format: cell-based, E. coli; conditions: disc on assay plate
Protocol: as §1
Two assays are developed for detecting inhibitors of the tetA gene product (using strain KB5), or the tetK gene product (using strain KB4). In the Inhibition Assay, cells of strain KB4 or KB5 are treated as described in the tetracycline screen above, except that the agar medium contains 5 ng/ml of tetracycline. Alternatively a Liquid Assay is also developed. Cells are first grown in LB (pH 7.5). Then cells are shifted to medium containing 5 ng/ml of tetracycline, and tetracycline-containing samples are added to aliquots. Cells are then incubated and assayed as described for the Tetracycline Assay. […] However, the intracellular concentration is reduced in tetracycline resistant strains due to the action of the efflux pump, so more tetracycline would be required in the medium to accumulate sufficient tetracycline inside the cell to induce. The Inhibition Assay is designed to detect compounds that cause β-galactosidase induction in the presence of sub-inducing levels of tetracycline for a resistant strain.

Molecule	Induction Assay response ([1]; disc on assay plate)	Inhibition Assay response [2]	Induction Assay response [1]	response in the Tetracycline Assay (β-galactosidase induction) ([1]; strain KB3ind, plate assay (plate or liquid assay))
CO[C@@]1(NC(=O)C(C(=O)O)c2ccc(O)cc2)C(=O)N2C(C(=O)O)=C(CSc3nnnn3C)CO[C@@H]21 (stereo partly drawn) [Moxalactam]	-	+		
Polymyxin B	-	-		
NCC[C@H](O)C(=O)N[C@@H]1C[C@H](N)[C@@H](O[C@H]2O[C@H](CN)[C@@H](O)[C@H](O)[C@H]2O)[C@H](O)[C@H]1O[C@H]1O[C@H](CO)[C@@H](O)[C@H](N)[C@H]1O [Amikacin]	-	-		
NC[C@H]1O[C@H](O[C@H]2[C@H](O)[C@@H](O[C@H]3O[C@H](CO)[C@@H](O)[C@H](N)[C@H]3O)[C@H](N)C[C@@H]2N)[C@H](O)[C@@H](O)[C@@H]1O [Kanamycin]		-	-	
CO[C@@H]1[C@@H](OC(N)=O)[C@@H](O)[C@H](Oc2ccc3c(O)c(NC(=O)c4ccc(O)c(CC=C(C)C)c4)c(=O)oc3c2C)OC1(C)C [Novobiocin]	-	-		
CC1(C)S[C@@H]2[C@H](NC(=O)[C@H](N)c3ccccc3)C(=O)N2[C@H]1C(=O)O [Ampicillin]	+			
CN(C)C1C(=O)C(C(N)=O)=C(O)C2(O)C(=O)C3=C(O)c4c(O)ccc(Cl)c4C(O)C3CC12 (stereo not drawn) [6-dimethyl chlortetracycline]				capable of detecting
Gentamicin	-	-		
O=C(Cc1cccs1)N[C@@H]1C(=O)N2C(C(=O)[O-])=C(C[n+]3ccccc3)CS[C@H]12 [Cephaleridine]		+		
CC1(C)S[C@@H]2[C@H](NC(=O)[C@H](C(=O)O)c3ccsc3)C(=O)N2[C@H]1C(=O)O [Ticarcillin]	+	+		
CC1(C)S[C@@H]2[C@H](NC(=O)C(C(=O)O)c3ccccc3)C(=O)N2[C@H]1C(=O)O (stereo partly drawn) [Carbenicillin]	+	+		
CC(=O)OCC1=C(C(=O)O)N2C(=O)[C@@H](NC(=O)Cc3cccs3)[C@H]2SC1 [Cephalethin]	+	+		
Cn1nnnc1SCC1=C(C(=O)O)N2C(=O)[C@@H](NC(=O)[C@H](O)c3ccccc3)[C@H]2SC1 [Cefamandole]	±	+		
CO/N=C(\C(=O)N[C@@H]1C(=O)N2C(C(=O)O)=C(COC(C)=O)CS[C@H]12)c1csc(N)n1 [Cefotaxime]	+			
NC(=O)c1cc[n+](CC2=C(C(=O)O)N3C(=O)[C@@H](NC(=O)[C@@H](c4ccccc4)S(=O)(=O)[O-])[C@H]3SC2)cc1 [Cefsulodin]		±		
CC[n+]1c(-c2ccccc2)c2cc(N)ccc2c2ccc(N)cc21 [Ethidium bromide]		-		
Cc1onc(-c2ccccc2)c1C(=O)N[C@@H]1C(=O)N2[C@@H]1SC(C)(C)[C@@H]2C(=O)O [Oxacillin]	-	-		
CCn1nc(C(=O)O)c(=O)c2cc3c(cc21)OCO3 [Cinoxacin]	±	-		
COc1cccc(OC)c1C(=O)N[C@@H]1C(=O)N2[C@@H]1SC(C)(C)[C@@H]2C(=O)O [Methicillin]	-	-		
CN[C@H](CC(C)C)C(=O)N[C@H]1C(=O)N[C@@H](CC(N)=O)C(=O)N[C@H]2C(=O)N[C@H]3C(=O)N[C@H](C(=O)N[C@H](C(=O)O)c4cc(O)cc(O)c4-c4cc3ccc4O)[C@H](O)c3ccc(c(Cl)c3)Oc3cc2cc(c3O[C@@H]2O[C@H](CO)[C@@H](O)[C@H](O)[C@H]2O[C@H]2C[C@](C)(N)[C@H](O)[C@H](C)O2)Oc2ccc(cc2Cl)[C@H]1O [Vancomycin]		-	±	
CC[C@H]1OC(=O)[C@H](C)[C@@H](O[C@H]2C[C@@](C)(OC)[C@@H](O)[C@H](C)O2)[C@H](C)[C@@H](O[C@@H]2O[C@H](C)C[C@H](N(C)C)[C@H]2O)[C@](C)(O)C[C@@H](C)C(=O)[C@H](C)[C@@H](O)[C@]1(C)O [Erythromycin]	-	-		
Neomycin	-			

Molecule	Induction Assay response ([1]; disc on assay plate)	Inhibition Assay response [2]	Induction Assay response [1]	response in the Tetracycline Assay (β-galactosidase induction) ([1]; strain KB3ind, plate assay (plate or liquid assay))
CCn1cc(C(=O)O)c(=O)c2cc(F)c(N3CCNCC3)cc21 [Norfloxacin]	-	-		
Nc1ccc(S(=O)(=O)Nc2ccc(Cl)nn2)cc1 [Sulfachloropyridazine]	-	-		
O=C(N[C@H](CO)[C@H](O)c1ccc([N+](=O)[O-])cc1)C(Cl)Cl [Chloremphenicol]	-	-		
CC1(C)S[C@@H]2[C@H](NC(=O)Cc3ccccc3)C(=O)N2[C@H]1C(=O)O [Penicillin G]	-	-		
Nc1ccc(S(=O)(=O)Nc2nccs2)cc1 [Sulfathiazole]	-	-		
CO[C@H]1/C=C/O[C@@]2(C)Oc3c(C)c(O)c4c(O)c(c(/C=N/N5CCN(C)CC5)c(O)c4c3C2=O)NC(=O)/C(C)=C\C=C\[C@H](C)[C@H](O)[C@@H](C)[C@@H](O)[C@@H](C)[C@H](OC(C)=O)[C@@H]1C [Rifampin]		-	-	
[H]/N=C(/N)N[C@H]1[C@H](O)[C@@H](O)[C@H](O[C@@H]2O[C@@H](C)[C@](O)(C=O)[C@H]2O[C@@H]2O[C@@H](CO)[C@H](O)[C@@H](O)[C@@H]2NC)[C@@H](N/C(N)=N\[H])[C@@H]1O [Streptomycin]	-	-		
CCn1cc(C(=O)O)c(=O)c2ccc(C)nc21 [Nalidixic Acid]	-	-		
NC[C@H]1O[C@H](O[C@H]2[C@H](O)[C@@H](O[C@H]3O[C@H](CO)[C@@H](O)[C@H](N)[C@H]3O)[C@H](N)C[C@@H]2N)[C@H](N)C[C@@H]1O [Tobramycin]	-	-		
CC(C)(O/N=C(\C(=O)N[C@@H]1C(=O)N2C(C(=O)[O-])=C(C[n+]3ccccc3)CS[C@H]12)c1csc(N)n1)C(=O)O [Ceftazidine]	++	++		
Nc1ccc(S(=O)(=O)Nc2ncccn2)cc1 [Sulfadiazine]		-	-	
Cc1onc(-c2ccccc2Cl)c1C(=O)N[C@@H]1C(=O)N2[C@@H]1SC(C)(C)[C@@H]2C(=O)O [Cloxacillin]		-		
C[C@@H]1[C@H](O)[C@@H](C)/C=C/C=C/CC/C=C/C=C/C=C/C=C/C(O[C@H]2O[C@H](C)[C@@H](O)[C@H](N)[C@@H]2O)CC2O[C@](O)(CC(O)C(O)CCC(O)CC(O)CC(O)CC(=O)O[C@H]1C)CC(O)C2C(=O)O (stereo partly drawn) [Nystatin]	++	-		
CC1(C)S[C@@H]2[C@H](NC(=O)[C@H](NC(=O)N3CCNC3=O)c3ccccc3)C(=O)N2[C@H]1C(=O)O [Azlocillin]		-		
Cc1nnc(NS(=O)(=O)c2ccc(N)cc2)s1 [Sulfamethizole]	-	-		
Bacitracin	-	-		
CCOc1ccc2ccccc2c1C(=O)N[C@@H]1C(=O)N2[C@@H]1SC(C)(C)[C@@H]2C(=O)O [Nafcillin]	-	-		
C[C@H]1[C@H](NC(=O)/C(=N\OC(C)(C)C(=O)O)c2csc(N)n2)C(=O)N1S(=O)(=O)O [Aztreonam]	-	-		
Colistin	-	-		
C[C@@H](O)[C@H]1C(=O)N2C(C(=O)O)=C(SCCN=CN)C[C@H]12 [Imipenem]		++	++	
CCN1CCN(C(=O)N[C@@H](C(=O)N[C@@H]2C(=O)N3[C@@H]2SC(C)(C)[C@@H]3C(=O)O)c2ccccc2)C(=O)C1=O [Piperacillin]	±	-		
CO[C@@]1(NC(=O)Cc2cccs2)C(=O)N2C(C(=O)O)=C(COC(N)=O)CS[C@@H]21 [Cefoxitin]		+		
